Experiments:
human TRPV3 = target: T1, human TRPV3 (Homo sapiens, UniProt Q8NET8); assay: In vitro antagonism of recombinant human TRPV3 activation (FLIPR Tetra calcium assay, 2-APB as agonist); type: cell-based; details: HEK293 cells stably expressing human TRPV3; 2-APB 80 μM; range class; read-out: IC50 (reported range)
T1 construct: expressed in transfected cells
T1 sequence (Q8NET8 1-790): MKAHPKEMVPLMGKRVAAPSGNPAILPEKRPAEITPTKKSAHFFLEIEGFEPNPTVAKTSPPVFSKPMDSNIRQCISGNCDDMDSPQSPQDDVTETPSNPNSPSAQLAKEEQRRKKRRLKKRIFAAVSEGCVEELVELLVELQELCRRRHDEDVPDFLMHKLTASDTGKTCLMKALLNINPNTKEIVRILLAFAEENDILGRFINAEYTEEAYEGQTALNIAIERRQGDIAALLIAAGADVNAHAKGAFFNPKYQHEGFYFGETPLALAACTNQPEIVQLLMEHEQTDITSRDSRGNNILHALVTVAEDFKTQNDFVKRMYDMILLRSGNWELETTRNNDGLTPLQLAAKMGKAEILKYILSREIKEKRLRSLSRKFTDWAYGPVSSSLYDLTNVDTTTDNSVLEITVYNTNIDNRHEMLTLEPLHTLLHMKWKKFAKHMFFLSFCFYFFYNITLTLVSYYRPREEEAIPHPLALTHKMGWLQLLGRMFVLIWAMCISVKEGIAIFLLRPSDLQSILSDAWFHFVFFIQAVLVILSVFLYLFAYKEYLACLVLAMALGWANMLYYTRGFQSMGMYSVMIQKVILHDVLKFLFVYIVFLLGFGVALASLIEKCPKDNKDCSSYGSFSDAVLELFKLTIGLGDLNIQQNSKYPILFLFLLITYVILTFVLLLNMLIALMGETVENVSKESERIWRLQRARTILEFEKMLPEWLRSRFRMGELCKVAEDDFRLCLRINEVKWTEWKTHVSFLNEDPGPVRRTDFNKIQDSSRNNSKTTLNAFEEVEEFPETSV
Method in brief: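 Readout is FLIPR fluorescence, max minus min as percent of uninhibited 2-APB response, giving IC50 (usually mean of ≥2 runs). Stable human TRPV3 HEK293 cells, Calcium-4 dye-loaded, got test compound then, three minutes later, 80 μM 2-APB (EC80); run length 10 min.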

[1] = In vitro rat microsomal stability assay; type: in vitro ADME, rat (Sprague-Dawley); details: Sprague-Dawley, rat, 0.5 h, 0.5 μM, pH 7.4
Method in brief: (§1)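 Compounds were incubated at 37 °C with Sprague-Dawley rat liver microsomes (rat assay) or human liver microsomes (human assay) to measure metabolic stability. NADPH was added, including to the time-zero samples.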

[2] = In vitro human microsomal stability assay; type: in vitro ADME; details: human, 0.5 h, 0.5 μM, pH 7.4
Method in brief: as §1

Structure (SMILES) | IC50 (human TRPV3) [nM] | RAT MICROSOMAL STABILITY (% REMAINING AFTER 30 MINUTES) [1] [%] | HUMAN MICROSOMAL STABILITY (% REMAINING AFTER 30 MINUTES) [2] [%]
NC1CCCCC1C(O)C1(c2cccc(C(F)(F)F)c2)CCC1 (stereo not drawn) [Example 212, (2-aminocyclohexyl){1-[3-(trifluoromethyl)phenyl]cyclobutyl}methanol] | 1100 to 5000 | 3.9 | >85
NC1CCC1C(O)C1(c2cccc(C(F)(F)F)c2)CCC1 (stereo not drawn) [Example 213, (2-aminocyclobutyl){1-[3-(trifluoromethyl)phenyl]cyclobutyl}methanol] | 1100 to 5000 | 72 | >85
N[C@@H]1CCC[C@@H]1[C@@H](O)C1(c2ccc(Cl)c(Cl)c2)CCC1 [Example 216, (R)-[(1S,2R)-2-aminocyclopentyl][1-(3,4-dichlorophenyl)cyclobutyl]-methanol] | 1100 to 5000 | 41 | >85
N[C@H]1CCC[C@H]1[C@H](O)C1(c2ccc(Cl)c(Cl)c2)CCC1 [Example 217, (S)-[(1R,2S)-2-aminocyclopentyl][1-(3,4-dichlorophenyl)cyclobutyl]-methanol] | 1100 to 5000 | 68 | 73
N[C@@H]1CCC[C@H]1[C@@H](O)C1(c2ccc(Cl)c(Cl)c2)CCC1 [Example 220, (R)-[(1R,2R)-2-aminocyclopentyl][1-(3,4-dichlorophenyl)cyclobutyl]-methanol] | 501 to 1000 | 67 | >85
N[C@@H]1CCC[C@@H]1[C@@H](O)C1(c2ccc(OC(F)(F)F)cc2)CCC1 [Example 221, (R)-[(1S,2R)-2-aminocyclopentyl]{1-[4-(trifluoromethoxy)phenyl]-cyclobutyl}methanol] | 1100 to 5000 | 56 | 83
N[C@H]1CCC[C@@H]1[C@H](O)C1(c2ccc(OC(F)(F)F)cc2)CCC1 [Example 222, (S)-[(1S,2S)-2-aminocyclopentyl]{1-[4-(trifluoromethoxy)phenyl]-cyclobutyl}methanol] | 1100 to 5000 | 59 | >85
N[C@@H]1CCC[C@H]1[C@@H](O)C1(c2ccc(OC(F)(F)F)cc2)CCC1 [Example 223, (R)-[(1R,2R)-2-aminocyclopentyl]{1-[4-(trifluoromethoxy)phenyl]-cyclobutyl}methanol] | 1100 to 5000 | 65 | >85
N[C@@H]1CCC[C@H]1[C@@H](O)C1(c2ccc(Cl)cc2)CCC1 [Example 224, (R)-[(1R,2R)-2-aminocyclopentyl][1-(4-chlorophenyl)cyclobutyl]methanol] | 1100 to 5000 | 70 | >85
N[C@H]1CCC[C@@H]1[C@H](O)C1(c2ccc(Cl)cc2)CCC1 [Example 225, (S)-[(1S,2S)-2-aminocyclopentyl][1-(4-chlorophenyl)cyclobutyl]methanol] | 1100 to 5000 | 34 | >85
N[C@H]1CCC[C@H]1[C@@H](O)C1(c2ccccc2F)CCC1 [Example 226, (R)-[(1R,2S)-2-aminocyclopentyl][1-(2-fluorophenyl)cyclobutyl]methanol] | 501 to 1000 | <0.01 | >85
N[C@@H]1CCC[C@H]1[C@@H](O)C1(c2cccc(C(F)(F)F)c2)CCC1 [Example 227, (R)-[(1R,2R)-2-aminocyclopentyl]{1-[3-(trifluoromethyl)phenyl]-cyclobutyl}methanol] | 50 to 500 | 42 | >85
CN[C@@H]1CCC[C@H]1[C@@H](O)C1(c2ccc(Cl)c(Cl)c2)CCC1 [Example 228, (R)-[1-(3,4-dichlorophenyl)cyclobutyl][(1R,2R)-2-(methylamino)-cyclopentyl]methanol] | 1100 to 5000 | 25 | 70

Reference: patent US8772500B2, “TRPV3 modulators” (AbbVie Inc., priority 2011, dated 2014)
